One experiment concerns the target T1, GCGR (Homo sapiens, UniProt P47871).
T1 construct: purchased Promega (in-house HiBiT-GPCR construct library, NanoBRET)
The experiment in a line: NanoBRET screen HiBiT-GCGR in HEK293. Particulars: GCGR; tracer 0.1μM. It is filed as binding. As for the experimental part:
(§1) Each tracer candidate was screened across the entire library of HiBiT-GPCR constructs using NanoBRET as the detection modality. As depicted in Figure 4A, the specificity of interactions was evaluated through decrease in BRET due to competitive displacement of a bound tracer by excess parental compound. Each tracer was analyzed for binding to each HiBiT-GPCR fusion in the absence and in the presence of competing parental compound. Briefly, HEK293 cells were transfected with HiBiT-GPCR constructs diluted into promoterless DNA to reduce expression and maximize translocation to the cell surface. Each tracer candidate was then screened at concentrations of 1 μM and 0.1 μM across cells expressing these fusions. Cells were treated for 1.5 h with tracer either alone or in the presence of 20 μM competing parental compound (i.e., control). BRET was measured upon addition of purified LgBiT and subsequent complementation with HiBiT genetically fused to a GPCR. The specificity of interactions was assessed through a decrease in BRET signal due to competitive displacement of the bound tracer. To further gauge the robustness of these interactions, the fold response over the control (i.e., BRETtracer/BRETcontrol) was calculated. We chose a 1.5-fold response, which translates to ≥7-fold signal over noise as the minimal threshold required to score an interaction as positive. […]. Below we highlight the screening results obtained for our exemplary fluorescent tracers based on Clozapine, Amitriptyline and AZD1283.
(§2) HiBiT-GPCR DNA constructs were diluted in 10 mM Tris pH 8 to a final concentration of 0.01 μg/μL, arrayed in 96-well plates and stored at −20 °C. For transfection, HEK293 cells were suspended in Opti-MEM (without phenol red) supplemented with 2% fetal bovine serum (Seradigm) and 100 units/mL penicillin–streptomycin (Gibco) at a final concentration of 220,000 cells/mL and dispensed into white 96-well plates at 90 μL/well. Subsequent transfections and screens were carried using an Agilent Bravo Automated Liquid Handling Platform. First, the 96-well HiBiT DNA arrays were diluted 25-fold in Opti-MEM (without serum or phenol red) to a final concentration of 0.0004 μg/μL and 20 μL of the diluted DNAs were transferred into new 96-well plates. Next, promoterless carrier DNA (1 μg/μL) was diluted 25-fold (0.04 μg/μL) and then dispensed into the diluted arrays at 20 μL/well. Following brief mixing, Viafect transfection reagent (Promega) diluted 16-fold into Opti-MEM was dispensed into the plates at 40 μL/well. After mixing by pipetting, plates were incubated for 10 min on the pipetting station deck. The DNA-transfection reagent complexes were then added to plates containing cells. To facilitate the screen, 10 μL of DNA-transfection reagent complexes were added in duplicates to the top 4 and bottom 4 rows, resulting in two identical 48-well arrays per plate. Plates with transfected cells were incubated for 18–20 h at 37 °C/5% CO2. A screen of each tracer across the entire library using two different concentrations requires duplicate plates of transfected cells. Depending on the number of tracers being screened, transfections can be scaled up using the same ratios. The next day, for each tracer, four 20× screening solutions in tracer dilution buffer (Promega) were prepared: two duplicates at final concentration of 20 μM and two duplicates at a final concentration of 2 μM. A competing unmodified compound was added to one of each duplicate at a final concentration of 400 μM. The four resulting solutions were diluted 4-fold in Opti-MEM without serum or phenol red to generate 5× solutions (5 µM and 0.5 µM tracer +/− 100 μM competing compound). To screen the library, a BioTek MultiFlo FX liquid dispenser was used to dispense 22.5 µL of tracer solution to the top 4 rows and 22.5 µL tracer + competing compound solution to the 4 bottom rows. Plates were briefly mixed on an orbital shaker and incubated for 1.5 h at room temperature. […]
(In general: Bioluminescence resonance energy transfer reports proximity on the nanometre scale.)
T1 sequence (P47871 26-477): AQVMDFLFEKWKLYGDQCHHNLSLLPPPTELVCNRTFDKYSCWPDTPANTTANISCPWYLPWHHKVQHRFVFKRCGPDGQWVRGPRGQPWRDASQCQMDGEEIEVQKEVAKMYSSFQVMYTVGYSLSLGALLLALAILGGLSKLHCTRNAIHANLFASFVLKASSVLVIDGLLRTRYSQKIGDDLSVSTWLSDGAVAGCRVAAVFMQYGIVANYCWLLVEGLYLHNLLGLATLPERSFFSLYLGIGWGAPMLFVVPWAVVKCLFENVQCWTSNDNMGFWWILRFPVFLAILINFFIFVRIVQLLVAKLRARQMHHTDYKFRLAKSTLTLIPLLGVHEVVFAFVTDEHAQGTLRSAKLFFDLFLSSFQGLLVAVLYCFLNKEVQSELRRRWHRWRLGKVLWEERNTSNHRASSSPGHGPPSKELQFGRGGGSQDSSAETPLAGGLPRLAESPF
As for `N#CN=C(NCCCOc1cccc(CN2CCCCC2)c1)NCCNC(=O)CCOCCOCCOCCOCCNC(=O)CCc1ccc2n1[B-](F)(F)[N+]1=C(c3ccc[nH]3)C=CC1=C2` [Aminopotentidine-2-NB590], the “NanoBRET Fold Response” value came to 0.95.
The same measure, in the same setting: for `CC(C)N(CC[C@H](c1ccccc1)c1cc(CCNC(=O)c2ccc(CNC(=O)CCc3ccc4n3[B-](F)(F)[N+]3=C(c5ccc[nH]5)C=CC3=C4)cc2)ccc1O)C(C)C` [Tolterodine-BZ-NB590] the value was 0.82; for `O=C(CCc1ccc2n1[B-](F)(F)[N+]1=C(c3ccc[nH]3)C=CC1=C2)NCCOCCOCCNC(=O)OCCOCCN1CCN(C2=Nc3ccccc3Sc3ccccc32)CC1` [Quetiapine-a-2-NB590], 0.94.

Staying with this experiment, now noted: GCGR; tracer 1μM.
Turning to `N#CN=C(NCCCOc1cccc(CN2CCCCC2)c1)NCCNC(=O)CCOCCOCCOCCOCCNC(=O)CCc1ccc2n1[B-](F)(F)[N+]1=C(c3ccc[nH]3)C=CC1=C2` [Aminopotentidine-2-NB590], the “NanoBRET Fold Response” value worked out at 1.04.
`CC(C)N(CC[C@H](c1ccccc1)c1cc(CCNC(=O)c2ccc(CNC(=O)CCc3ccc4n3[B-](F)(F)[N+]3=C(c5ccc[nH]5)C=CC3=C4)cc2)ccc1O)C(C)C` [Tolterodine-BZ-NB590]: the “NanoBRET Fold Response” value was found to be 1.00.
The same measure, in the same setting: the figure for `O=C(CCc1ccc2n1[B-](F)(F)[N+]1=C(c3ccc[nH]3)C=CC1=C2)NCCOCCOCCNC(=O)OCCOCCN1CCN(C2=Nc3ccccc3Sc3ccccc32)CC1` [Quetiapine-a-2-NB590] is 0.73.

The target in a further experiment is T2, PTGDR2 (Homo sapiens, UniProt Q9Y5Y4).
T2 construct: purchased Promega (in-house HiBiT-GPCR construct library, NanoBRET)
T2 sequence (Q9Y5Y4 1-395): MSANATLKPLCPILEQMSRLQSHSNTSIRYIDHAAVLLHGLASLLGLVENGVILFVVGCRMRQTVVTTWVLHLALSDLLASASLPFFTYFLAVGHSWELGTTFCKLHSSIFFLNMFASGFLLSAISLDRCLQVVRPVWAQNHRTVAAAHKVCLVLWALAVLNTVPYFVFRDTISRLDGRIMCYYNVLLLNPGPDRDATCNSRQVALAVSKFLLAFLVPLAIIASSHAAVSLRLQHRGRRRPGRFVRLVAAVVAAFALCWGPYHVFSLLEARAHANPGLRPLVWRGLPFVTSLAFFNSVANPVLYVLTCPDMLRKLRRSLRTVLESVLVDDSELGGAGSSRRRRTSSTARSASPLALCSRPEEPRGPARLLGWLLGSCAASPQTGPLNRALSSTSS
The experiment in a line: NanoBRET screen HiBiT-PTGDR2 in HEK293. In kind it is binding. As to conditions: PTGDR2; tracer 0.1μM. As for the experimental part: as §1, §2
With `N#CN=C(NCCCOc1cccc(CN2CCCCC2)c1)NCCNC(=O)CCOCCOCCOCCOCCNC(=O)CCc1ccc2n1[B-](F)(F)[N+]1=C(c3ccc[nH]3)C=CC1=C2` [Aminopotentidine-2-NB590], the “NanoBRET Fold Response” value came out at 0.98.
The same measure, in the same setting: the figure for `CC(C)N(CC[C@H](c1ccccc1)c1cc(CCNC(=O)c2ccc(CNC(=O)CCc3ccc4n3[B-](F)(F)[N+]3=C(c5ccc[nH]5)C=CC3=C4)cc2)ccc1O)C(C)C` [Tolterodine-BZ-NB590] is 0.98.
The same measure, in the same setting: the figure for `O=C(CCc1ccc2n1[B-](F)(F)[N+]1=C(c3ccc[nH]3)C=CC1=C2)NCCOCCOCCNC(=O)OCCOCCN1CCN(C2=Nc3ccccc3Sc3ccccc32)CC1` [Quetiapine-a-2-NB590] is 0.96.

The experiment is the same for the next values; noted with them: PTGDR2; tracer 1μM.
As to `N#CN=C(NCCCOc1cccc(CN2CCCCC2)c1)NCCNC(=O)CCOCCOCCOCCOCCNC(=O)CCc1ccc2n1[B-](F)(F)[N+]1=C(c3ccc[nH]3)C=CC1=C2` [Aminopotentidine-2-NB590], the “NanoBRET Fold Response” value was 0.48.
On the same count and under the same terms, for `CC(C)N(CC[C@H](c1ccccc1)c1cc(CCNC(=O)c2ccc(CNC(=O)CCc3ccc4n3[B-](F)(F)[N+]3=C(c5ccc[nH]5)C=CC3=C4)cc2)ccc1O)C(C)C` [Tolterodine-BZ-NB590] the value was 0.96; for `O=C(CCc1ccc2n1[B-](F)(F)[N+]1=C(c3ccc[nH]3)C=CC1=C2)NCCOCCOCCNC(=O)OCCOCCN1CCN(C2=Nc3ccccc3Sc3ccccc32)CC1` [Quetiapine-a-2-NB590], 1.05.

The next experiment addresses T3, F2RL2 (Homo sapiens, UniProt O00254).
T3 construct: purchased Promega (in-house HiBiT-GPCR construct library, NanoBRET)
T3 sequence (O00254 22-374): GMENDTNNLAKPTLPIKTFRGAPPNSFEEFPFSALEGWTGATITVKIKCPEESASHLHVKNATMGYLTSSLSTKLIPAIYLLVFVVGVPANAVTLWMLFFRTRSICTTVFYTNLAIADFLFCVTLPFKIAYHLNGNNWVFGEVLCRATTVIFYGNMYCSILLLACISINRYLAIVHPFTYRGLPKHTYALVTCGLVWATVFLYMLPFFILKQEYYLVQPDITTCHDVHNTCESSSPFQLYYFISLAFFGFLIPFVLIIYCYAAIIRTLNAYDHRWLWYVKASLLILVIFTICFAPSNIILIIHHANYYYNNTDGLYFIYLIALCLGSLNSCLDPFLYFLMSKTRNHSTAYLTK
Kind of experiment: NanoBRET screen HiBiT-F2RL2 in HEK293. In kind it is binding. Particulars: F2RL2; tracer 0.1μM. As for the experimental part:
as §1, §2
As to `N#CN=C(NCCCOc1cccc(CN2CCCCC2)c1)NCCNC(=O)CCOCCOCCOCCOCCNC(=O)CCc1ccc2n1[B-](F)(F)[N+]1=C(c3ccc[nH]3)C=CC1=C2` [Aminopotentidine-2-NB590], the “NanoBRET Fold Response” value amounted to 0.95.
Same read-out and setting: the figure for `CC(C)N(CC[C@H](c1ccccc1)c1cc(CCNC(=O)c2ccc(CNC(=O)CCc3ccc4n3[B-](F)(F)[N+]3=C(c5ccc[nH]5)C=CC3=C4)cc2)ccc1O)C(C)C` [Tolterodine-BZ-NB590] is 1.01.
Take `O=C(CCc1ccc2n1[B-](F)(F)[N+]1=C(c3ccc[nH]3)C=CC1=C2)NCCOCCOCCNC(=O)OCCOCCN1CCN(C2=Nc3ccccc3Sc3ccccc32)CC1` [Quetiapine-a-2-NB590]: the “NanoBRET Fold Response” value is 1.06.

The experiment is the same for the next values; noted with them: F2RL2; tracer 1μM.
`N#CN=C(NCCCOc1cccc(CN2CCCCC2)c1)NCCNC(=O)CCOCCOCCOCCOCCNC(=O)CCc1ccc2n1[B-](F)(F)[N+]1=C(c3ccc[nH]3)C=CC1=C2` [Aminopotentidine-2-NB590]: the “NanoBRET Fold Response” value is given as 1.02.
Same read-out and setting: the figure for `CC(C)N(CC[C@H](c1ccccc1)c1cc(CCNC(=O)c2ccc(CNC(=O)CCc3ccc4n3[B-](F)(F)[N+]3=C(c5ccc[nH]5)C=CC3=C4)cc2)ccc1O)C(C)C` [Tolterodine-BZ-NB590] is 1.04; for `O=C(CCc1ccc2n1[B-](F)(F)[N+]1=C(c3ccc[nH]3)C=CC1=C2)NCCOCCOCCNC(=O)OCCOCCN1CCN(C2=Nc3ccccc3Sc3ccccc32)CC1` [Quetiapine-a-2-NB590] it is 0.89.

Source of the values: article PMC8151276, “An Integrated Approach toward NanoBRET Tracers for Analysis of GPCR Ligand Engagement” (Molecules, 2021).
